The source of these data is US10358469B2, “Methods and pharmaceutical compositions for the treatment of cancer” (INSERM (INSTITUT NATIONAL DE LA SANTÉ ET DE LA RECHERCHE …, priority 2014, dated 2019).

The subject of data set [1] is A549 cells. As to the kind of experiment: Cell viability (MTT) of A549 cells under low serum / serum deprivation. The class given is cell-based. As for the experimental part:
(A) Karpas 1106, SU-DHL-5, SeAx and HUT-78 cells were plated at a densities of 6×10^3 in 96 well plates (100 μL total volume per well) and treated for 24 hours in a 37° C. incubator (5% CO2) with increasing concentrations of the Antp-AAC-11-LZ (363-399). 20 μL MTS reagent was then added to each well and plates were incubated for an additional 4 hours. Absorbance was measured at 490 nm using a 96-well plate reader. The extent to which the Antp-AAC-11-LZ (363-399) peptide inhibited cell proliferation was calculated as a percentage of the absorbance in each well containing the Antp-AAC-11-LZ (363-399) peptide relative to wells containing no peptide (negative control). Each bar represents the mean±s.d. from at least three independent experiments. (B) Indicated cells were plated at a densities of 4.5×10^3 in 96 well plates (100 μL total volume per well) and allowed to attach overnight in a 37° C. incubator (5% CO2). Media was removed from cells and replaced with media containing Antp-AAC-11-LZ (363-399) peptide at various concentrations (100 μL total volume per well) peptide and the plates were incubated for 24 hours. The MTT assay was then completed and data analysis was performed as described herein. […] A549 cells were plated at a densities of 4.5×10^3 in 96 well plates (100 μL total volume per well) and allowed to attach overnight in a 37° C. incubator (5% CO2). Media was removed from cells and replaced with media containing the indicated peptides at 10 μM (100 μL total volume per well) and the plates were incubated for 24 hours. The MTT assay was then completed and data analysis was performed as described herein.
(A) A549 cells were plated at a densities of 4.5×10^3 in 96 well plates (100 μL total volume per well) and allowed to attach overnight in a 37° C. incubator (5% CO2). Media was removed from cells and replaced with media containing the indicated peptides at various concentrations (100 μL total volume per well) peptide in the absence of serum and the plates were incubated for 24 hours. The MTT assay was then completed and data analysis was performed as described herein. (B) A549 or HaCat cells were plated at a densities of 4.5×10^3 in 96 well plates (100 μL total volume per well) and allowed to attach overnight in a 37° C. incubator (5% CO2). Media was removed from cells and replaced with media containing the indicated peptides at 10 μM (100 μL total volume per well) peptide in the absence of serum and the plates were incubated for 24 hours. The MTT assay was then completed and data analysis was performed as described herein.
A549 cells were plated at a densities of 4.5×10^3 in 96 well plates (100 μL total volume per well) and allowed to attach overnight in a 37° C. incubator (5% CO2). Cells were left untreated or pre-treated with 100 μM Z-VAD-FMK for 2 h. […] The MTT assay was then completed and data analysis was performed as described herein.
(A) A549 cells were plated at a densities of 4.5×10^3 in 96 well plates (100 μL total volume per well) and allowed to attach overnight in a 37° C. incubator (5% CO2). Media was removed from cells and replaced with media containing the indicated Antp-AAC-11-LZ peptides at various concentrations (100 μL total volume per well) peptide and the plates were incubated for 24 hours. The MTT assay was then completed and data analysis was performed as described herein. (B) A549 or HaCat cells were plated at a densities of 4.5×10^3 in 96 well plates (100 μL total volume per well) and allowed to attach overnight in a 37° C. incubator (5% CO2). Media was removed from cells and replaced with media containing the indicated peptides at 10 μM (100 μL total volume per well) peptide in the absence of serum and the plates were incubated for 24 hours. The MTT assay was then completed and data analysis was performed as described herein.

In data set [2] the test system is human triple-negative breast cancer xenograft PDX02. As to the kind of experiment: Triple-negative breast cancer patient-derived xenograft PDX02 in nude mice. The class given is in vivo. The settings on record: 2.4 mg/kg i.p., 7 daily injections, FIG. 8B. As for the experimental part: Breast cancer fragments were obtained from patients at the time of surgery, with informed written patient consent. After imaging-guided human tumor biopsies had been performed, fragments of 30 to 60 mm^3 were subcutaneously grafted in 6-week-old NMRI-nude mice (Centre-Elevage-Janvier, France), under xylasin (10 mg/kg)/ketamin (100 mg/kg) anesthesia. Mice were maintained in specific pathogen-free animal housing (Institut Universitaire d'Hematologie) and received estrogen (17 mg/mL) diluted in drinking water. Xenografts were characterized and subsequently subcutaneously transplanted from mouse to mouse. […] Two human triple-negative breast cancer (HBC) xenografts models were used in our experiments (PDX01 and PDX02). […] Following transplantation (n=6 per model) tumor growth was assessed by measuring tumor size in two dimension using a Vernier caliper. Tumor volume was calculated using the formula [3.14×long axis×short axis×short axis]/6 (Kjonniksen et al., 1989). […] Mice were weighted and the tumor size was measured by a caliper and recorded daily. Fourteen days after beginning of the treatment mice were sacrificed. The tumors, kidney, lungs, heart, liver, pancreas and spleen were taken and fixed. Paraffin-embedded sections were prepared and stained with hematoxylin and eosin for histological analysis.
For orientation: Xenograft models place foreign cells or tissue in a host animal.

Data set [3] deals with leukemic cells isolated from hMRP8-PML/RARα transgenic mice. As to the kind of experiment: Acute promyelocytic leukemia (APL) mouse model, survival. The class given is in vivo. As for the experimental part: FIG. 9: Antp-AAC-11-LZ (363-399) peptide treatment of leukemic mice protects against disease progression. Mice were challenged with 10^4 leukemic cells isolated from hMRP8-PML/RARα transgenic mice, allowed to engraft for 10 d, and were then injected intraperitonaly each day for 7 consecutive days with Antp-AAC-11-LZ (363-399) peptide (1.8 mg/kg) or vehicle (normal saline solution), or subcutaneously implanted with a 21-d release pellet containing 5 mg ATRA (n=6 for each treatment). Mice were monitored for survival.
We use an established in vivo APL model based on syngenic grafts of leukemic blasts from hMRP8-PML/RARα transgenic mice, as described by Brown et al. (Brown et al., 1997). This model mimics human APL, both in its biological characteristics and its response to conventional therapeutic drugs such as all-trans retinoic acid (ATRA) and 100% of the mice die of the disease (Brown et al., 1997; Kogan et al., 2000; Lallemand-Breitenbach et al., 1999). […] leukemic cells isolated from bone marrow, spleen, or lymph nodes of leukemic hMRP8-PML/RARα transgenic mice (Brown et al., 1997) were injected into the tail vein of 6-7 week old syngeneic FVB/N mice. Establishment of leukemia was assessed by the appearance of high leukocyte and low platelet counts at around day 8 (Brown et al., 1997). Ten days after transplantation, mice implanted with leukemic cells were randomly assigned to either type of treatment (n=6). Antp-AAC-11-LZ (363-399) peptide (1.8 mg/kg) or vehicle (normal saline solution) was injected intraperitonaly each day for 7 consecutive days. Retinoic acid was administrated by subcutaneous implantation of a 21-d release pellet containing 5 mg ATRA (Innovative Research of America). Mice were then monitored for survival.

On to “Ac-RQIKIWFKKQNRRMKWKKAKLNAEKLKDFKIRLQYFARGLQVYIRQLRLALQGKT-NH2 [Antp-AAC-11-LZ (363-399)]”, for which, in data set [1] (2 µM), the cellular viability is given as 97 % of control. For the same substance, the “influence of cycloheximide on peptide induced-cytotoxicity” value in data set [1] (10 μM cycloheximide, various peptide concentrations, data not shown) is “had no influence”. The “induction of cell death of A549 cells” value in data set [1] (10 μM, serum deprivation, 24 hours, FIG. 1C) was “induced cell death”. The “effect of pan-caspase inhibitor Z-VAD-FMK on induced cytotoxicity / cell death” value in data set [1] (100 μM Z-VAD-FMK, 2 h pre-treatment, 24 hours, cisplatin 50 μM, FIG. 3) is given as “did not rescue, but somehow increased”. For the same substance, the “tumor size versus vehicle” value in data set [2] is “significantly smaller tumors”. Also, in data set [3] (n=6 per treatment), the “mice surviving up to 67 d” value was “Four of 6” and the “mice surviving up to 76 d” value is listed as 2. For the same substance, in data set [3] (peptide 1.8 mg/kg i.p. daily for 7 days, ATRA 5 mg 21-d release pellet s.c., from day 10 after graft, n=6), the mean survival time is 68.5 days.
